Laboratory results reported in patent publication US20100305183A1, “METHOD AND COMPOSITION FOR REDUCING REPERFUSION INJURY” (Adelaide Research & Innovation Pty Ltd, priority 2006, published 2010).

How the values were obtained:
Assay type in all cases: in vivo
blood brain barrier [1] = test: Blood brain barrier permeability induced by injection of tPA in naïve (uninjured) animal; details: FIG. 2
[2] = tested on: rats subject to ischaemia/reperfusion injury; test: Rotarod test of motor function after reversible stroke and reperfusion; details: 2 h occlusion, over ensuing 7 days, FIG. 4
Experimental: Anaesthetised rats were subject to 2 hours reversible stroke using the intraluminal thread model of middle cerebral artery occlusion. At 2 hours, reperfusion was initiated by withdrawing the thread and following a further 2 hours, N-acetyl-L-tryptophan (10^-5 mol/kg) or […],060 (1 mg/kg) was administered by intravenous injection.

blood brain barrier [3] = test: Evan's blue leakage into brain tissue following injury; details: dose-dependent, FIG. 1
Text: We chose to use the compound N-acetyl-L-tryptophan (NAT).

[4] = tested on: rats subject to ischaemia/reperfusion injury; test: Oedema after reversible stroke (intraluminal thread model of middle cerebral artery occlusion) and reperfusion; details: 2 h occlusion, 10^−5 mol/kg intravenous 2 h after reperfusion, FIG. 3
Experimental: To this end, anaesthetised rats were subject to 2 hours reversible stroke using the intraluminal thread model of middle cerebral artery occlusion. At 2 hours, reperfusion was initiated by withdrawing the thread and following a further 2 hours, N-acetyl-L-tryptophan (10^−5 mol/kg) was administered by intravenous injection. There was a significant increase in oedema at 24 h following ischaemia/reperfusion injury.

[5] = tested on: IL-1β, IL-6 and TNFα mRNA; test: RT-PCR of inflammatory cytokine mRNA in brain tissue after hypoxia and hypotension; details: rats, 10^−5 mol/kg intravenous after hypoxia and hypotension, 6 hours after injury, normalised to rpL32
Experimental: In order to induce the inflammatory response associated with reperfusion, anaesthetised rats were subject to 15 minutes of hypoxia (PAO2 30-40 mmHg) and hypotension (MABP 40 mmHg), before blood oxygen level and blood pressure were restored to normal levels. In order to examine the effects of a substance P antagonist on the inflammatory response, N-acetyl-L-tryptophan was administered intravenously at a dose of 10^−5 mol/kg after hypoxia and hypotension. The expression of mRNA for the inflammatory cytokines IL-1β, IL-6 and TNFα in brain tissue was determined by reverse transcription followed by a polymerase chain reaction (RT-PCR). mRNA levels were normalised with respect to expression of rpL32. Brain tissue samples were collected at 6 hours after injury. Levels of expression of mRNA for the inflammatory cytokines were compared between non-ischaemic animals (control), ischaemic animals administered drug vehicle alone (ischaemia), and ischaemic animals administered a substance P receptor antagonist (NK1). mRNA expression was determined for IL-1β (FIG. 5a), IL-6 (FIG. 5b) and TNFα (FIG. 5c).

IL-6 = test: Serum IL-6 by ELISA after hypoxia and hypotension; details: rats; 10^−5 mol/kg intravenous after hypoxia and hypotension; blood at 6 hours after the insult; FIG. 6
Experimental: In order to induce the inflammatory response associated with reperfusion, anaesthetised rats were subject to 15 minutes of hypoxia (PAO2 30-40 mmHg) and hypotension (MABP 40 mmHg), before blood oxygen level and blood pressure were restored to normal levels. In addition, serum interleukin 6 levels were also determined. Blood samples were collected at 6 hours after the insult. Changes in serum IL-6 levels were quantified using an enzyme-linked immunosorbent assay (ELISA). Serum levels of IL-6 were compared between animals that were not subject to ischaemia (control), animals subject to ischaemia followed by administration of drug vehicle alone (ischaemia), and animals subject to ischaemia followed by administration of a substance P receptor antagonist (NK1) (FIG. 6).

tPA: tissue plasminogen activator, a thrombolytic agent
permeability of the blood brain barrier after tPA alone (blood brain barrier [1]; tPA (Actilyse) alone to naïve (uninjured) animal): increased permeability of the blood brain barrier

FC(F)(F)c1cc(CO[C@H]2CCCN[C@H]2c2ccccc2)cc(C(F)(F)F)c1 [L733,060]
functional outcome, rotarod test of motor function ([2]; 1 mg/kg intravenous 2 h after reperfusion): improved functional outcome

CC(=O)N[C@@H](Cc1c[nH]c2ccccc12)C(=O)O [N-acetyl-L-tryptophan]
leakage of Evan's blue dye into the brain tissue (blood brain barrier closure) (blood brain barrier [3]): reduced leakage of Evan's blue dye into the brain tissue | permeability of the blood brain barrier induced by tPA (blood brain barrier [1]; NAT 10^−5 mol/kg, tPA (Actilyse) injected to naïve (uninjured) animal): prevented the increased permeability of the blood brain barrier | oedema at 24 h following ischaemia/reperfusion injury [4]: significantly attenuated | functional outcome, rotarod test of motor function ([2]; 10^−5 mol/kg intravenous 2 h after reperfusion): profound improvement in functional outcome | expression of IL-1β mRNA in brain tissue with respect to non-ischaemic animals ([5]; FIG. 5a): no significant differences | expression of IL-6 mRNA in brain tissue with respect to non-ischaemic animals ([5]; FIG. 5b): no significant differences | expression of TNFα mRNA in brain tissue with respect to non-ischaemic animals ([5]; FIG. 5c): no significant differences | increase in serum IL-6 levels (IL-6): this response was not observed
